Test results taken from ChEMBL document CHEMBL5550122, “Photodynamic anticancer activity evaluation of novel 5-aminolevulinic acid and 3-hydroxypyridinone conjugates” (Bioorg Med Chem, 2024).
Calls of active or inactive are those of the source. The rule behind the calls is not given here.

Columns and labels:
[1] = (§1) Prodrug release in human Hela cells assessed as 3-[(1Z,4Z,9Z,15Z)-7-(2-carboxyethyl)-3,8,12,17-tetramethyl-13,18-divinyl-21,23-dihydroporphyrin-2-yl]propanoic acid release by measuring increase in fluorescence intensity at 20 to 80 uM by microplate reader analysis; type: ADME, cell-based; details: dose 20-80 µM
[2] = test system: MCF7; test: Cytotoxicity against human MCF7 cells assessed as reduction in cell viability at 100 uM incubated for 4 hrs under dark condition by MTT assay; type: functional, cell-based
[3] = test system: MCF7; test: Cytotoxicity against human MCF7 cells assessed as reduction in cell viability preincubated for 4 hrs under dark condition followed by irradiation with blue light at 2.5 J.cm^-2 energy level for 5 mins and measured after 18 hrs by MTT assay; type: functional, cell-based; details: MCF7, light or radiation study
[4] = test system: A-375; test: Cytotoxicity against human A-375 cells assessed as reduction in cell viability at 100 uM incubated for 4 hrs under dark condition by MTT assay; type: functional, cell-based
[5] = (§2) Prodrug release in human A-375 cells assessed as 3-[(1Z,4Z,9Z,15Z)-7-(2-carboxyethyl)-3,8,12,17-tetramethyl-13,18-divinyl-21,23-dihydroporphyrin-2-yl]propanoic acid release by measuring increase in fluorescence intensity at 20 to 80 uM by microplate reader analysis; type: ADME, cell-based; details: a-375, 80 µM, dose 20-80 µM
[6] = as §1, with “MCF7” for “Hela”, “measuring fold” for “measuring”, “analysis relative to 5-Aminolevulinic acid” for “analysis”; type: ADME, cell-based; details: mcf7, 80 µM, dose 20-80 µM
[7] = Drug metabolism assessed as esterase (unknown origin) mediated hydrolysis by measuring 5-Aminolevulinic acid formation; type: ADME; details: human
[8] = test system: A-375; test: Cytotoxicity against human A-375 cells assessed as reduction in cell viability preincubated for 4 hrs under dark condition followed by irradiation with blue light at 2.5 J.cm^-2 energy level for 5 mins and measured after 18 hrs by MTT assay; type: functional, cell-based; details: A-375, light or radiation study
[9] = Prodrug release in human MCF7 cells assessed as 3-[(1Z,4Z,9Z,15Z)-7-(2-carboxyethyl)-3,8,12,17-tetramethyl-13,18-divinyl-21,23-dihydroporphyrin-2-yl]propanoic acid release by measuring increase in fluorescence intensity at 20 to 80 uM by microplate reader analysis; type: ADME, cell-based; details: mcf7, 80 µM, dose 20-80 µM
[10] = as §2, with “measuring fold” for “measuring”, “analysis relative to 5-Aminolevulinic acid” for “analysis”; type: ADME, cell-based; details: a-375, 80 µM, dose 20-80 µM
[11] = test system: HeLa; test: Cytotoxicity against human HeLa cells assessed as reduction in cell viability at 100 uM incubated for 4 hrs under dark condition by MTT assay; type: functional, cell-based
[12] = as §1, with “measuring fold” for “measuring”, “analysis relative to 5-Aminolevulinic acid” for “analysis”; type: ADME, cell-based; details: dose 20-80 µM
[13] = Drug metabolism assessed as esterase (unknown origin) mediated hydrolysis by measuring hydroxypyridinone formation; type: ADME; details: human
[14] = test system: HeLa; test: Cytotoxicity against human HeLa cells assessed as reduction in cell viability preincubated for 4 hrs under dark condition followed by irradiation with blue light at 2.5 J.cm^-2 energy level for 5 mins and measured after 18 hrs by MTT assay; type: functional, cell-based; details: light or radiation study

Drug metabolism [1]: Metabolite_Detected
Drug metabolism [5]: Metabolite_Detected
fold change (FC) [6]: 5.3
Drug metabolism [7]: Metabolite_Detected
Drug metabolism [9]: Metabolite_Detected
fold change (FC) [10]: 2.8
fold change (FC) [12]: 18.9
Drug metabolism [13]: Metabolite_Detected
Structure (SMILES): CCCCCCn1c(C)cc(=O)c(O)c1COC(=O)CCC(=O)CN.Cl
Activity [2]: inactive
IC50 [3]: 43.3 µM
Activity [4]: inactive
IC50 [8]: 28 µM
Activity [11]: inactive
IC50 [14]: 24.2 µM
